Target: T1, fl-KcsA (full-length KcsA) (Streptomyces lividans, UniProt P0A334)
T1 sequence (P0A334 1-160): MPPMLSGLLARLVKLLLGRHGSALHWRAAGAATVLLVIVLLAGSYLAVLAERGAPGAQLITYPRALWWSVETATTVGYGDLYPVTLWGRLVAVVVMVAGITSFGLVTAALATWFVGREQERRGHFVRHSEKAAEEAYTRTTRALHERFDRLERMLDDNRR
Assay: SPR, KcsA immobilised on SAM chip
Assay type: binding
Settings: specific blocker; type of constant not given

In the case of `CCCC[N+](CCCC)(CCCC)CCCC` [TBA], the binding affinity is reported as “The binding affinity of TBA to KcsA deduced from the present SPR study”.

Reference: publication PMC10709135 (iScience, 2023)
